Measured values: patent US8440652B2, “MST1 kinase inhibitors and methods of their use” (Lexicon Pharmaceuticals, Inc., priority 2011, dated 2013)
Like-named read-outs stand apart in the source and are kept apart here.

Biological target: T1, MST1 (Homo sapiens, UniProt Q13043)
T1 sequence (Q13043 1-487): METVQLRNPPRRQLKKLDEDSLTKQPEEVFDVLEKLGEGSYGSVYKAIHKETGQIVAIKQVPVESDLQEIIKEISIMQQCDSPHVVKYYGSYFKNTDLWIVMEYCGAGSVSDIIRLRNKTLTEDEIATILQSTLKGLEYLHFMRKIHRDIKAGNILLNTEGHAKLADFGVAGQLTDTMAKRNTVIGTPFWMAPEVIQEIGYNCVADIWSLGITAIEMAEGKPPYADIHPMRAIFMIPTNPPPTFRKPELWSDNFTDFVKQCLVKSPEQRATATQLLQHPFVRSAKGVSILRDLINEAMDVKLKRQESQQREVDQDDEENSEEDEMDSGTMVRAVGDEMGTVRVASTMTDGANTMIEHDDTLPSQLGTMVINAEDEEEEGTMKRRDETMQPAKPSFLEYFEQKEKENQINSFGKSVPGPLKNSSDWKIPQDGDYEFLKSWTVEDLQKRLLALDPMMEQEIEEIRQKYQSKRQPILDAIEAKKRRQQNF
Test: In vitro measurement of MST1 inhibition (Z′-Lyte kinase assay)
Assay type: biochemical
Method: Assays were performed in low-volume 384-well black proxiplates (Perkin Elmer, PE-Blk-Proxi-6008269). Eight compounds were first diluted into LDV (Echo) plates using a Multiprobe, at a starting concentration of 1 mM compound in 100% DMSO. Using the ECHO, 75 nl compound was pinged into 384-well proxiplates. The starting concentration of compound in each assay plate is 7.5 uM, followed by 3-fold dilutions, to give quadruplicate ten-point concentration curves. A 3× solution of MST1 enzyme in kinase buffer (Invitrogen, PR4940C) was added to wells containing compound or DMSO controls, followed by a 10 minute preincubation step. Reactions were initiated by adding 5 μL of a mixture of ATP and Z′-Lyte S/T Pep 7 (Invitrogen, PV3180) and proceeded at RT for 1 hour. […] At the end of the kinase reaction, 10 ul of developing solution (Invitrogen, catalog #PR4876B; development buffer A diluted […] in development buffer B) was added to each well and incubated at RT for 1 hr. All wells were read on a Tecan at 400 nm excitation and 460 nm/530 nm emission. Plus and minus enzyme controls were used to calculate percent inhibition and IC50 curves were generated using Excel.

[1] = 1 μM ATP, read-out: IC50 (μM) 1 μM ATP
[2] = 50 μM ATP, read-out: IC50 (μM) 50 μM ATP

| SMILES | IC50 [1] | IC50 [2] |
| --- | --- | --- |
| N#CC1(c2ccc(-c3cnc(N)c(-c4ccc5c(c4)CCNC5=O)n3)cc2)CCCC1 [1-(4-(5-amino-6-(1-oxo-1,2,3,4-tetrahydroisoquinolin-6-yl)pyrazin-2-yl)phenyl)cyclopentanecarbonitrile] | < 0.01 µM | < 0.01 µM |
| N#CC1(c2ccc(-c3cnc(N)c(-c4ccc5c(=O)[nH]ccc5c4)n3)cc2)CC1 [1-(4-(5-amino-6-(1-oxo-1,2-dihydroisoquinolin-6-yl)pyrazin-2-yl)phenyl)cyclopropanecarbonitrile] | < 0.05 µM | < 0.01 µM |
| N#CC1(c2ccc(-c3cnc(N)c(-c4ccc5c(c4)C4(CC4)CNC5=O)n3)cc2)CC1 [1-(4-(5-amino-6-(1′-oxo-2′,3′-dihydro-1′H-spiro[cyclopropane-1,4′-isoquinolin]-6′-yl)pyrazin-2-yl)phenyl)cyclopropanecarbonitrile] | < 0.01 µM | < 0.01 µM |
| N#CC1(c2ccc(-c3cnc(N)c(-c4ccc5c(c4)C4(CC4)NC5=O)n3)cc2)CC1 [1-(4-(5-amino-6-(3′-oxospiro[cyclopropane-1,1′-isoindolin]-6′-yl)pyrazin-2-yl)phenyl)cyclopropanecarbonitrile] | < 0.05 µM | < 0.01 µM |
| CC1(C)CNC(=O)c2ccc(-c3nc(-c4ccc(C5(C#N)CC5)cc4)cnc3N)cc21 [1-(4-(5-amino-6-(4,4-dimethyl-1-oxo-1,2,3,4-tetrahydroisoquinolin-6-yl)pyrazin-2-yl)phenyl)cyclopropanecarbonitrile] | < 0.01 µM | < 0.01 µM |
| N#CC1(c2ccc(-c3cc(-c4ccc5c(c4)CCNC5=O)c(N)nn3)cc2)CC1 [1-(4-(6-amino-5-(1-oxo-1,2,3,4-tetrahydroisoquinolin-6-yl)pyridazin-3-yl)phenyl)cyclopropanecarbonitrile] | < 0.15 µM | < 0.15 µM |
| N#CC1(c2ccc(-c3cnc(N)c(-c4ccc5c(c4)CCNC5=O)c3)cc2)CC1 [1-(4-(6-amino-5-(1-oxo-1,2,3,4-tetrahydroisoquinolin-6-yl)pyridin-3-yl)phenyl)cyclopropanecarbonitrile] | < 0.05 µM | < 0.05 µM |
| N#CCn1cc(-c2cnc(N)c(-c3ccc4c(c3)CCNC4=O)n2)cn1 [2-(4-(5-amino-6-(1-oxo-1,2,3,4-tetrahydroisoquinolin-6-yl)pyrazin-2-yl)-1H-pyrazol-1-yl)acetonitrile] | < 0.15 µM | < 0.05 µM |
| Cc1cc(-c2cnc(N)c(-c3ccc4c(c3)CCNC4=O)n2)ccc1C(C)(C)C#N [2-(4-(5-amino-6-(1-oxo-1,2,3,4-tetrahydroisoquinolin-6-yl)pyrazin-2-yl)-2-methylphenyl)-2-methylpropanenitrile] | < 0.05 µM | < 0.01 µM |
| CC(C)(Oc1ccc(-c2cnc(N)c(-c3ccc4c(c3)CCNC4=O)n2)cc1)C(N)=O [2-(4-(5-amino-6-(1-oxo-1,2,3,4-tetrahydroisoquinolin-6-yl)pyrazin-2-yl)phenoxy)-2-methylpropanamide] | < 0.05 µM | < 0.01 µM |
| N#CCOc1ccc(-c2cnc(N)c(-c3ccc4c(c3)CCNC4=O)n2)cc1 [2-(4-(5-amino-6-(1-oxo-1,2,3,4-tetrahydroisoquinolin-6-yl)pyrazin-2-yl)phenoxy)acetonitrile] | < 0.15 µM | < 0.05 µM |
| CC(C)(C#N)c1ccc(-c2cnc(N)c(-c3ccc4c(c3)CCNC4=O)n2)cc1 [2-(4-(5-amino-6-(1-oxo-1,2,3,4-tetrahydroisoquinolin-6-yl)pyrazin-2-yl)phenyl)-2-methylpropanenitrile] | < 0.05 µM | < 0.01 µM |
| N#CC1CC1c1ccc(-c2cnc(N)c(-c3ccc4c(c3)CCNC4=O)n2)cc1 (centres unmarked) [2-(4-(5-amino-6-(1-oxo-1,2,3,4-tetrahydroisoquinolin-6-yl)pyrazin-2-yl)phenyl)cyclopropanecarbonitrile] | < 0.05 µM | < 0.01 µM |
| CC(C)(C#N)c1ccc(-c2cnc(N)c(-c3ccc4c(=O)[nH]ccc4c3)n2)cc1 [2-(4-(5-amino-6-(1-oxo-1,2-dihydroisoquinolin-6-yl)pyrazin-2-yl)phenyl)-2-methylpropanenitrile] | < 0.05 µM | < 0.01 µM |
| CC(C)(C#N)c1ccc(-c2cnc(N)c(-c3ccc4c(c3)CCNC4=O)n2)s1 [2-(5-(5-amino-6-(1-oxo-1,2,3,4-tetrahydroisoquinolin-6-yl)pyrazin-2-yl)thiophen-2-yl)-2-methylpropanenitrile] | < 0.05 µM | < 0.01 µM |
| N#CCc1ccc(-c2cnc(N)c(-c3ccc4c(c3)CCNC4=O)n2)s1 [2-(5-(5-amino-6-(1-oxo-1,2,3,4-tetrahydroisoquinolin-6-yl)pyrazin-2-yl)thiophen-2-yl)acetonitrile] | < 0.05 µM | < 0.01 µM |
| CC(C)(C#N)c1ccc(-c2cnc(N)c(-c3ccc4c(c3)CCNC4=O)c2)cn1 [2-(6′-amino-5′-(1-oxo-1,2,3,4-tetrahydroisoquinolin-6-yl)-[3,3′-bipyridin]-6-yl)-2-methylpropanenitrile] | < 0.05 µM | < 0.05 µM |

| SMILES | IC50 [1] | IC50 [2] |
| --- | --- | --- |
| CCN(CC)S(=O)(=O)c1ccc(-c2cnc(N)c(-c3ccc(C(N)=O)cn3)c2)cc1 [2′-amino-5′-(4-(N,N-diethylsulfamoyl)phenyl)-[2,3′-bipyridine]-5-carboxamide] | < 0.05 µM | < 0.01 µM |
| CCNS(=O)(=O)c1ccc(-c2cnc(N)c(-c3ccc(C(N)=O)cn3)c2)cc1 [2′-amino-5′-(4-(N-ethylsulfamoyl)phenyl)-[2,3′-bipyridine]-5-carboxamide] | < 0.05 µM | < 0.01 µM |
| NCC1CCC(NC(=O)c2nc(-c3ccc(S(=O)(=O)NC4CC4)cc3)cnc2N)CC1 (centres unmarked) [3-amino-N-(4-(aminomethyl)cyclohexyl)-6-(4-(N-cyclopropylsulfamoyl)phenyl)pyrazine-2-carboxamide] | < 0.05 µM | < 0.01 µM |
| CCCC(C)NC(=O)c1nc(-c2cc(OC)c(OC)c(OC)c2)cnc1N (centres unmarked) [3-amino-N-(pentan-2-yl)-6-(3,4,5-trimethoxyphenyl)pyrazine-2-carboxamide] |  | < 0.15 µM |
| COc1ccc(-c2cnc(N)c(C(=O)NC3CCCCC3)n2)cc1OC [3-amino-N-cyclohexyl-6-(3,4-dimethoxyphenyl)pyrazine-2-carboxamide] |  | < 0.15 µM |
| CCNS(=O)(=O)c1ccc(-c2cnc(N)c(C(=O)NC3CCCCC3)n2)cc1 [3-amino-N-cyclohexyl-6-(4-(N-ethylsulfamoyl)phenyl)pyrazine-2-carboxamide] | < 0.15 µM | < 0.05 µM |
| COCc1ccc(-c2cnc(N)c(C(=O)NC3CCCCC3)n2)cc1 [3-amino-N-cyclohexyl-6-(4-(methoxymethyl)phenyl)pyrazine-2-carboxamide] |  | < 0.15 µM |
| CN(C1CC1)S(=O)(=O)c1ccc(-c2cnc(N)c(C3=CCN(C(=O)CC#N)CC3)c2)cc1 [4-(2-amino-1′-(2-cyanoacetyl)-1′,2′,3′,6′-tetrahydro-[3,4′-bipyridin]-5-yl)-N-cyclopropyl-N-methylbenzenesulfonamide] | < 0.15 µM | < 0.15 µM |
| NC(=O)c1ccc(-c2cc(-c3cn[nH]c3)cnc2N)cc1 [4-(2-amino-5-(1H-pyrazol-4-yl)pyridin-3yl)benzamide] |  | < 0.15 µM |
| NC(=O)c1ccc(-c2cc(-c3ccc(S(=O)(=O)NC4CC4)cc3Cl)cnc2N)cc1 [4-(2-amino-5-(2-chloro-4-(N-cyclopropylsulfamoyl)phenyl)pyridin-3-yl)benzamide] |  | < 0.15 µM |
| CN(C)C(=O)COc1ccc(-c2cnc(N)c(-c3ccc(C(N)=O)cc3)c2)cc1 [4-(2-amino-5-(4-(2-(dimethylamino)-2-oxoethoxy)phenyl)pyridin-3-yl)benzamide] |  | < 0.15 µM |
| NC(=O)c1ccc(-c2cc(-c3ccc(CC(=O)N4CCCC4)cc3)cnc2N)cc1 [4-(2-amino-5-(4-(2-oxo-2-(pyrrolidin-1-yl)ethyl)phenyl)pyridin-3-yl)benzamide] |  | < 0.15 µM |
| CCN(CC)S(=O)(=O)c1ccc(-c2cnc(N)c(-c3ccc(C(N)=O)c(F)c3)c2)cc1 [4-(2-amino-5-(4-(N,N-diethylsulfamoyl)phenyl)pyridin-3-yl)-2-fluorobenzamide] |  | < 0.05 µM |
| NC(=O)c1ccc(-c2cc(-c3ccc(S(=O)(=O)NC4CC4)cc3)cnc2N)cc1 [4-(2-amino-5-(4-(N-cyclopropylsulfamoyl)phenyl)pyridin-3-yl)benzamide] | < 0.05 µM | < 0.05 µM |
| CNS(=O)(=O)c1ccc(-c2cnc(N)c(-c3ccc(C(N)=O)cc3)c2)cc1 [4-(2-amino-5-(4-(N-methylsulfamoyl)phenyl)pyridin-3-yl)benzamide] |  | < 0.15 µM |
| Nc1ncc(-c2ccc(C(=O)NCc3ccccc3)cc2)cc1-c1ccc(C(=O)NO)cc1 [4-(2-amino-5-(4-(benzylcarbamoyl)phenyl)pyridin-3-yl)-N-hydroxybenzamide] |  | < 0.15 µM |
